# Where a name gives a salt, the structure may show the parent alone. Read-outs that look alike come from different tables or passages of the source.
# Tests used:
# Metabolic stability = type: in vitro ADME; settings: stated in contrast to Chloramphenicol
# [1] = Water solubility (observation on the isolated product); type: physicochemical; settings: in Wasser, result in words
# Acute toxicity (mouse) = settings: in vivo, read-out: Akute Toxizität (Maus): LD50
# Escherichia coli = assay: In vivo activity (mouse), infection with Escherichia coli; settings: po; Maus, p.o., gegen Escherichia coli; hydrochloride form; read-out: In-vivo-Aktivität (Maus) (CD50 p.o.)
# [2] = Hydrolytic cleavage of the ester at physiological pH; type: physicochemical; settings: bei physiologischem pH
# Streptococcos pyogenes = assay: In vivo activity (mouse), infection with Streptococcos pyogenes; settings: po, Maus, p.o., gegen Streptococcos pyogenes, hydrochloride form, read-out: In-vivo-Aktivität (Maus) (CD50 p.o.)
# [3] = system: Pseudomonas aeruginosa BA; assay: In vivo activity (mouse), infection with Pseudomonas aeruginosa BA; settings: po; Maus, p.o., gegen Pseudomonas aeruginosa BA; hydrochloride form; read-out: In-vivo-Aktivität (Maus) (CD50 p.o.)
# Salmonella typhimurium = assay: In vivo activity (mouse), infection with Salmonella typhimurium; settings: Salmonella enterica, po; Maus, p.o., gegen Salmonella typhimurium; hydrochloride form; read-out: In-vivo-Aktivität (Maus) (CD50 p.o.)
smiles,measurement,setting,value
"O=C(N[C@H](CO)[C@H](O)c1ccc([N+](=O)[O-])cc1)C(F)F [Fluoramphenicol, D-threo-1-(p-Nitrophenyl)-2-difluor-Mez/3.5.1979 acetamino-l,3-propandiol]",Metabolische Beständigkeit,Metabolic stability,metabolisch beständig
C[C@H](N)C(=O)OC[C@@H](NC(=O)C(F)F)[C@H](O)c1ccc([N+](=O)[O-])cc1 [Fluoramphenicol-3-(L-alaninester)-hydrochlorid],Wasserlöslichkeit,[1],sehr gut wasserlösliches
CCCCCCCCCCCCCCCC(=O)OC[C@@H](NC(=O)C(F)F)[C@H](O)c1ccc([N+](=O)[O-])cc1 [Fluoramphenicol-3-palmitat],Wasserlöslichkeit,[1],in Wasser praktisch unlösliche
O=C(O)CCC(=O)OC[C@@H](NC(=O)C(F)F)[C@H](O)c1ccc([N+](=O)[O-])cc1 [Fluoramphenicol-3-monosuccinat-natriumsalz],Wasserlöslichkeit,[1],sehr gut wasserlösliches
"NCC(=O)OC[C@@H](NC(=O)C(F)F)[C@H](O)c1ccc([N+](=O)[O-])cc1 [Fluoramphenicol-3-glycinester, Fluoramphenicol-3-(glycinester)-hydrochlorid]",LD50,Acute toxicity (mouse); po,> 5000 mg/kg
same,LD50,Acute toxicity (mouse); sc,2000 to 4000 mg/kg
same,ED50,Escherichia coli,23 mg/kg
same,Hydrolytische Spaltung,[2],sofort hydrolytisch zu wirksamem Fluoramphenicol gespalten
same,ED50,Streptococcos pyogenes,27 mg/kg
same,ED50,[3],47 mg/kg
same,ED50,Salmonella typhimurium,12 mg/kg
